Measured values published in ChEMBL document CHEMBL1201862, “PubChem BioAssay data set” (2004).
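Cultured in 96-well plates, cells were exposed to test compound for 48 hours across five concentrations. The concentration for 50% growth inhibition is given as GI50.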 Calls of active or inactive are those of the source. No stated cut-off is given here; in the data, active = GI50 up to about 1.1 µM and inactive = higher.

Tests used:
Assay in all cases: DTP human tumour cell line panel, 48 h
[1] = test system: A498
[2] = test system: A549
[3] = test system: ACHN
[4] = test system: CAKI-1
[5] = test system: CCRF-CEM
[6] = test system: COLO 205
[7] = test system: DLD-1
[8] = test system: DMS-114
[9] = test system: DMS-273
[10] = test system: HCC 2998
[11] = test system: HCT-116
[12] = test system: HCT-15
[13] = test system: HL-60
[14] = test system: HOP-62
[15] = test system: HOP-92
[16] = test system: HT-29
[17] = test system: IGROV-1
[18] = test system: K562
[19] = test system: KM-20L2
[20] = test system: KM12
[21] = test system: LXFL 529
[22] = test system: M14
[23] = test system: M19-MEL
[24] = test system: MOLT-4
[25] = test system: Malme-3M
[26] = test system: NCI-H226
[27] = test system: NCI-H23
[28] = test system: NCI-H460
[29] = test system: NCI-H522
[30] = test system: OVCAR-3
[31] = test system: OVCAR-4
[32] = test system: OVCAR-5
[33] = test system: OVCAR-8
[34] = test system: RPMI-8226
[35] = test system: SF-268
[36] = test system: SF-295
[37] = test system: SF-539
[38] = test system: SK-MEL-28
[39] = test system: SK-MEL-2
[40] = test system: SK-MEL-5
[41] = test system: SK-OV-3
[42] = test system: SN12C
[43] = test system: SNB-19
[44] = test system: SNB-75
[45] = test system: SNB-78
[46] = test system: SR
[47] = test system: SW-620
[48] = test system: TK-10
[49] = test system: U-251
[50] = test system: UACC-257
[51] = test system: UACC-62
[52] = test system: UO-31
[53] = test system: XF498
[54] = test system: 786-0
[55] = test system: EKVX
[56] = test system: HOP-18
[57] = test system: LOX IMVI
[58] = test system: RXF 393

SMILES: COC(=O)C1=COC2OC3/C(=C\c4ccc(O)c(OC)c4)C(=O)OC34C=CC1C24 (centres undefined)
- GI50 [1]: 27.7 µM (inactive)
- GI50 [2]: 17.1 µM (inactive)
- GI50 [3]: 15.1 µM (inactive)
- GI50 [4]: 23.3 µM (inactive)
- GI50 [5]: 23.2 µM (inactive)
- GI50 [6]: 20.1 µM (inactive)
- GI50 [7]: 18.5 µM (inactive)
- GI50 [8]: 24.7 µM (inactive)
- GI50 [9]: 16.3 µM (inactive)
- GI50 [10]: 10.8 µM (inactive)
- GI50 [11]: 19 µM (inactive)
- GI50 [12]: 14.6 µM
- GI50 [13]: 9.18 µM (inactive)
- GI50 [14]: 24.5 µM (inactive)
- GI50 [15]: 22.5 µM (inactive)
- GI50 [16]: 19.2 µM (inactive)
- GI50 [17]: 24.4 µM (inactive)
- GI50 [18]: 15.5 µM (inactive)
- GI50 [19]: 17.8 µM (inactive)
- GI50 [20]: 13.8 µM (inactive)
- GI50 [21]: 13.5 µM (inactive)
- GI50 [22]: 3.37 µM (inactive)
- GI50 [23]: 14.2 µM (inactive)
- GI50 [24]: 31.2 µM (inactive)
- GI50 [25]: 16.5 µM (inactive)
- GI50 [26]: 14.4 µM (inactive)
- GI50 [27]: 17.7 µM (inactive)
- GI50 [28]: 17.9 µM (inactive)
- GI50 [29]: 15.2 µM (inactive)
- GI50 [30]: 14.9 µM (inactive)
- GI50 [31]: 17.6 µM (inactive)
- GI50 [32]: 18.3 µM (inactive)
- GI50 [33]: 18.9 µM (inactive)
- GI50 [34]: 26.1 µM (inactive)
- GI50 [35]: 19.5 µM (inactive)
- GI50 [36]: 17.2 µM (inactive)
- GI50 [37]: 17.4 µM (inactive)
- GI50 [38]: 18.6 µM (inactive)
- GI50 [39]: 11.3 µM (inactive)
- GI50 [40]: 35.2 µM (inactive)
- GI50 [41]: 17 µM (inactive)
- GI50 [42]: 17.8 µM (inactive)
- GI50 [43]: 19.6 µM (inactive)
- GI50 [44]: 11.7 µM (inactive)
- GI50 [45]: 15.2 µM (inactive)
- GI50 [46]: 28.8 µM (inactive)
- GI50 [47]: 20 µM (inactive)
- GI50 [48]: 17.3 µM (inactive)
- GI50 [49]: 15.2 µM (inactive)
- GI50 [50]: 15.9 µM (inactive)
- GI50 [51]: 19.6 µM (inactive)
- GI50 [52]: 14.4 µM (inactive)
- GI50 [53]: 3.46 µM (inactive)

SMILES: COc1cc(Nc2nc3ccc(C(F)(F)F)cc3nc2-c2ccccc2)cc(OC)c1OC
- GI50 [54]: 31 µM (inactive)
- GI50 [1]: 24.5 µM (inactive)
- GI50 [2]: 23.8 µM (inactive)
- GI50 [3]: 9.1 µM (inactive)
- GI50 [4]: 18.8 µM (inactive)
- GI50 [5]: 8.11 µM (inactive)
- GI50 [6]: > 10 µM (inactive)
- GI50 [7]: 6.73 µM (inactive)
- GI50 [9]: 12 µM (inactive)
- GI50 [55]: 18.2 µM (inactive)
- GI50 [10]: 4.23 µM (inactive)
- GI50 [12]: 4.41 µM
- GI50 [56]: < 0.01 µM (active)
- GI50 [14]: > 100 µM (inactive)
- GI50 [15]: 0.991 µM (active)
- GI50 [16]: 1.98 µM (inactive)
- GI50 [17]: > 100 µM (inactive)
- GI50 [18]: 5.56 µM (inactive)
- GI50 [19]: 5.85 µM (inactive)
- GI50 [20]: 9.38 µM (inactive)
- GI50 [57]: 4.32 µM (inactive)
- GI50 [21]: 23.1 µM (inactive)
- GI50 [22]: 9.93 µM (inactive)
- GI50 [24]: 8.41 µM (inactive)
- GI50 [25]: 37 µM (inactive)
- GI50 [26]: 7.66 µM (inactive)
- GI50 [27]: 67.5 µM (inactive)
- GI50 [28]: 4.82 µM (inactive)
- GI50 [29]: 27.8 µM (inactive)
- GI50 [30]: 40.6 µM (inactive)
- GI50 [31]: 51.4 µM (inactive)
- GI50 [32]: 20.7 µM (inactive)
- GI50 [33]: 28.2 µM (inactive)
- GI50 [58]: 30 µM (inactive)
- GI50 [35]: 5.75 µM (inactive)
- GI50 [36]: 3.05 µM (inactive)
- GI50 [37]: 25.2 µM (inactive)
- GI50 [38]: 40.8 µM (inactive)
- GI50 [39]: 21.9 µM (inactive)
- GI50 [40]: 16.4 µM (inactive)
- GI50 [41]: > 100 µM (inactive)
- GI50 [42]: 18.7 µM (inactive)
- GI50 [44]: > 100 µM (inactive)
- GI50 [45]: > 100 µM (inactive)
- GI50 [46]: 8.3 µM (inactive)
- GI50 [47]: 85.3 µM (inactive)
- GI50 [48]: > 100 µM (inactive)
- GI50 [49]: 32.7 µM (inactive)
- GI50 [50]: 16.1 µM (inactive)
- GI50 [51]: 36.2 µM (inactive)
- GI50 [52]: 10 µM (inactive)
